Test results published in BindingDB's records for doi:10.1111/cbdd.12812 (Yueyang Vocational Technical College, 2016).
pIC50: −log10 of the molar value.

target: T1, Aromatase (Homo sapiens, UniProt P11511); assay: Aromatase Inhibition Activity Assay; conditions: pH 7.5; 37 °C
T1 sequence (P11511 whole entry): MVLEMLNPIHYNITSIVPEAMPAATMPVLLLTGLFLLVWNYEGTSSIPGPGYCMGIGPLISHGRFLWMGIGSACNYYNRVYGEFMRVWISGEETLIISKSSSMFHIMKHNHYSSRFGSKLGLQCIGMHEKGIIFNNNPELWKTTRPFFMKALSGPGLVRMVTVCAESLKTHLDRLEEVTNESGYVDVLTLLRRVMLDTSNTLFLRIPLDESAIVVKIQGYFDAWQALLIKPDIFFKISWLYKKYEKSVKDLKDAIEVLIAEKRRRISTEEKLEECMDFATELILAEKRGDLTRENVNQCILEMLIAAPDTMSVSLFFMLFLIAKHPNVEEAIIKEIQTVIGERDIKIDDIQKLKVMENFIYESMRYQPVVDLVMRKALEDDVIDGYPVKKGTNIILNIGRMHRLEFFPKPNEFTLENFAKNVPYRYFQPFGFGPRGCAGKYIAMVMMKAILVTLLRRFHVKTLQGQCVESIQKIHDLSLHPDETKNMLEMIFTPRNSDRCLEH
Protocol: Briefly, concentrated stock solutions of test compounds were prepared in acetonitrile. Hundred microliters of samples containing serial dilutions of test compounds (dilution factor of 3 between samples) and cofactor mixture (0.4 U/mL glucose-6-phosphate dehydrogenase; 16.2 μm NADP+; 825 μm MgCl2; 825 μm glucose-6- phosphate; 50 μm citrate buffer, pH 7.5) was prepared in a 96-well plate. […] The plate was covered and incubated for 30 min at 37 °C. Seventy-five microliters of 0.5 m Tris base was then added to stop the reaction, and the fluorescence of the formed de-methylated MFC was measured with a plate reader (Spectra Max Gemini; Molecular Devices, Sunnyvale, CA, USA).

| SMILES | pIC50 |
| --- | --- |
| Cc1c(C(=O)c2nn3c(nc(=O)c4ccccc43)s2)c(=O)n(-c2ccccc2)n1C [2-[4-(1,2-Dihydro-1,5-dimethyl-2-phenyl-3-oxo-3H-pyrazol-4-yl]-1,3,4-thiazolo[3,2-a]-1,3-quinazolin-2-one (10b)] | 8.41 |
| Cc1c(C(=O)c2sc(=N)sc2Nc2ccccc2)c(=O)n(-c2ccccc2)n1C [4-[4-(1,2-Dihydro-1,5-dimethyl-2-phenyl-3-oxo-3H-pyrazol-4-ylcarbonyl)]-5-phenylamino-1,3-dithiole-2-imine (7)] | 8.34 |
| Cc1c(C(=O)CSC#N)c(=O)n(-c2ccccc2)n1C [1,2-Dihydro-1,5-dimethyl-2-phenyl-4-thiocyanatoacetyl-3H-pyrazol-3-one (2)] | 8.17 |

Now those with a higher pIC50, led by results:

| pIC50 | SMILES |
| --- | --- |
| 8.46 | Cc1c(-c2csc(O)n2)c(=O)n(-c2ccccc2)n1C [2-Hydroxy-4-([4-(1,2-dihydro-1,5-dimethyl-2-phenyl-3-oxo-3H-pyrazol-4-yl)thiazole (25)] |
| 8.48 | Cc1c(-c2csc(Cl)n2)c(=O)n(-c2ccccc2)n1C [2-Chloro-4-[4-(1,2-dihydro-1,5-dimethyl-2-phenyl-3-oxo-3H-pyrazol-4-yl)thiazole (26)] |
